In article PMC12155888, “Design, Synthesis, and Antitumor Biological Evaluation of Galaxamide and Its Analogs” (Molecules, 2025):
pIC50: −log10 of the molar value. ≈ marks a conversion by molar mass, not a printed value. Like-named read-outs stand apart in the source and are kept apart here. Where a SMILES comes first, the peptide text is derived from it. [ ]: non-standard residue; d: D form. dChg = N[C@@H](C(=O)O)C1CCCCC1; dPhg = N[C@@H](C(=O)O)c1ccccc1; NMeL = CN[C@@H](CC(C)C)C(=O)O; dNMeL = CN[C@H](CC(C)C)C(=O)O

Legend:
[1] = tested on: 293T; format: cell-based, human; settings: 48 h
Excerpt: (§1) Since the antitumor activity of natural galaxamide is good, we are interested in the antitumor potential of the obtained new analogs. To examine the anticancer activities of galaxamide and its analogs, two different human cancer cell lines, human non-small-cell lung cancer cells (A549) and human chronic myelogenous leukemia (K562), and one normal human cell line, human immortal embryonic kidney cells (293T), were selected for the in vitro cell models. […] The synthetic galaxamide (Gala01) was also tested as the standard. […] It was also found […] the best selectivity and highest safety and is thus worthy of further development for anticancer drugs for K562. A549, K562, and 293T cells were purchased from the Cell Resource Center of the Institute of Basic Medicine, Chinese Academy of Medical Sciences. Both A549 cells and K562 cells were cultured in RPMI (full name: Roswell Park Memorial Institute) 1640 medium containing 10% FBS (full name: fetal bovine serum, product number: C04001-500, Vivacell, Shanghai, China) and 1% p/s (full name: penicillin-streptomycin, product number: 15140122, Gbico, Waltham, MA, USA) for culture. The 293T cells were all cultured in DMEM (full name: Dulbecco's Modified Eagle Medium; cat. no.: C3113-0500, Vivacell, ShanghaiChina; containing 10% FBS and 1% p/s) for cultivation. […] Multiple types of cells were seeded into 96-well plates and treated with different concentrations of […]26 for 48 h after they returned to normal. Then, the relative activity of the cells was detected according to the instructions of the CCK-8 kit (item number: MA0218, Meilunbio, Dalian, China) and analyzed and calculated using GraphPad Prism 8.0.1 software.

[2] = tested on: A549; format: cell-based, human
Excerpt: as §1

[3] = tested on: K562; format: cell-based, human
Experimental: To examine the anticancer activities of galaxamide and its analogs, two different human cancer cell lines, human non-small-cell lung cancer cells (A549) and human chronic myelogenous leukemia (K562), and one normal human cell line, human immortal embryonic kidney cells (293T), were selected for the in vitro cell models. […] The synthetic galaxamide (Gala01) was also tested as the standard. […] A549, K562, and 293T cells were purchased from the Cell Resource Center of the Institute of Basic Medicine, Chinese Academy of Medical Sciences. Both A549 cells and K562 cells were cultured in RPMI (full name: Roswell Park Memorial Institute) 1640 medium containing 10% FBS (full name: fetal bovine serum, product number: C04001-500, Vivacell, Shanghai, China) and 1% p/s (full name: penicillin-streptomycin, product number: 15140122, Gbico, Waltham, MA, USA) for culture. The 293T cells were all cultured in DMEM (full name: Dulbecco's Modified Eagle Medium; cat. no.: C3113-0500, Vivacell, ShanghaiChina; containing 10% FBS and 1% p/s) for cultivation. […] Multiple types of cells were seeded into 96-well plates and treated with different concentrations of […]26 for 48 h after they returned to normal. Then, the relative activity of the cells was detected according to the instructions of the CCK-8 kit (item number: MA0218, Meilunbio, Dalian, China) and analyzed and calculated using GraphPad Prism 8.0.1 software.

[4] = tested on: human renal cell carcinoma GRC-1; design: method as in PMID 18816120; settings: human renal cell carcinoma GRC-1 cell line; cited from earlier work
[5] = tested on: human hepatocellular carcinoma Hep G2; design: method as in PMID 18816120; settings: human hepatocellular carcinoma Hep G2 cell line; cited from earlier work
[6] = normal human embryonic kidney cells 293T, CCK-8, NA = not determined due to low inhibitory activity, read-out: IC50 293T
[7] = human non-small-cell lung cancer cells A549, 48 h, CCK-8, unit given in the text, not in Table 2, read-out: IC50 A549
[8] = human chronic myelogenous leukemia K562, 48 h, CCK-8, unit given in the text, not in Table 2, read-out: IC50 K562

| pIC50 ([2]; 48 h) | pIC50 ([3]; 48 h) | Molecule | pIC50 [2, 7] | pIC50 [3, 8] | other results |
| --- | --- | --- | --- | --- | --- |
|  |  | CC(C)C[C@@H]1C(=O)N[C@H](CC(C)C)C(=O)N[C@H](CC(C)C)C(=O)N(C)[C@H](CC(C)C)C(=O)N[C@H](CC(C)C)C(=O)N1C [Gala01, Cyclo(Me-D-Leu-D-Leu-D-Leu-Me-D-Leu-D-Leu)] (cyclo([dL][dL][dNMeL][dL][dNMeL])) | 4.85 | < 4.10 | pIC50 [1, 6]: 4.70; IC50 GRC-1 [4]: 4.26 µg/mL (≈ 7.17 µM); IC50 Hep G2 [5]: 4.63 µg/mL (≈ 7.8 µM) |
|  |  | CC(C)C[C@@H]1NC(=O)[C@H](CC(C)C)N(C)C(=O)[C@H](CC(C)C)NC(=O)[C@H](CC(C)C)N(C)C(=O)[C@@H](CC(C)C)NC1=O [Gala02, Cyclo(Me-L-Leu-L-Leu-D-Leu-Me-L-Leu-L-Leu)] (cyclo(L[NMeL]L[dL][NMeL])) | < 4.70 | 5.07 |  |
|  |  | CC(C)C[C@@H]1NC(=O)[C@@H](CC(C)C)N(C)C(=O)[C@H](CC(C)C)NC(=O)[C@@H](CC(C)C)N(C)C(=O)[C@H](CC(C)C)NC1=O [Gala03, Cyclo(Me-D-Leu-L-Leu-L-Leu-Me-D-Leu-L-Leu)] (cyclo(LL[dNMeL]L[dNMeL])) | < 4.70 | < 4.10 |  |
|  |  | CC(C)C[C@@H]1NC(=O)[C@@H](CC(C)C)N(C)C(=O)[C@H](CC(C)C)NC(=O)[C@@H](CC(C)C)N(C)C(=O)[C@@H](CC(C)C)NC1=O [Gala04, Cyclo(Me-D-Leu-L-Leu-D-Leu-Me-D-Leu-L-Leu)] (cyclo(L[dL][dNMeL]L[dNMeL])) | 4.72 | 5.38 | pIC50 [1, 6]: 4.79 |
|  |  | CC(C)C[C@@H]1NC(=O)[C@@H](CC(C)C)NC(=O)[C@H](CC(C)C)N(C)C(=O)[C@@H](CC(C)C)NC(=O)[C@H](CC(C)C)N(C)C1=O [Gala05, Cyclo(Me-L-Leu-D-Leu-L-Leu-Me-L-Leu-D-Leu)] (cyclo(L[NMeL][dL][NMeL][dL])) | < 4.70 | 4.99 |  |
|  |  | CC(C)C[C@H]1NC(=O)[C@H](CC(C)C)N(C)C(=O)[C@@H](CC(C)C)NC(=O)[C@H](CC(C)C)N(C)C(=O)[C@@H](CC(C)C)NC1=O [Gala06, Cyclo(Me-L-Leu-D-Leu-D-Leu-Me-L-Leu-D-Leu)] (cyclo([NMeL][dL][NMeL][dL][dL])) | < 4.70 | 4.54 |  |
|  |  | CC(C)C[C@@H]1NC(=O)[C@@H](CC(C)C)NC(=O)[C@@H](CC(C)C)N(C)C(=O)[C@@H](CC(C)C)NC(=O)[C@@H](CC(C)C)N(C)C1=O [Gala07, Cyclo(Me-D-Leu-D-Leu-L-Leu-Me-D-Leu-D-Leu)] (cyclo(L[dNMeL][dL][dNMeL][dL])) | < 4.70 | < 4.10 |  |
| < 4.70 | 4.83 | CC(C)C[C@@H]1NC(=O)[C@H](CC(C)C)N(C)C(=O)[C@H](CC(C)C)NC(=O)[C@H](CC(C)C)N(C)C(=O)[C@@H](Cc2ccccc2)NC1=O [Gala09, Cyclo(Me-L-Leu-L-Leu-D-Phe-Me-L-Leu-L-Leu)] |  |  |  |
| < 4.70 | 4.57 | CC(C)C[C@@H]1NC(=O)[C@H](CC(C)C)N(C)C(=O)[C@H](CC(C)C)NC(=O)[C@H](CC(C)C)N(C)C(=O)CNC1=O [Gala10, Cyclo(Me-L-Leu-L-Leu-Gly-Me-L-Leu-L-Leu)] (cyclo([NMeL]LG[NMeL]L)) |  |  |  |
|  | 4.47 | CC(C)C[C@@H]1NC(=O)[C@H](CC(C)C)N(C)C(=O)[C@H](CC(C)C)NC(=O)[C@H](CC(C)C)N(C)C(=O)[C@@H](C)NC1=O [Gala11, Cyclo(Me-L-Leu-L-Leu-D-Ala-Me-L-Leu-L-Leu)] (cyclo([NMeL]L[dA][NMeL]L)) |  |  | pIC50 [1]: 4.88 |
|  | 4.21 | COC[C@H]1NC(=O)[C@H](CC(C)C)NC(=O)[C@H](CC(C)C)N(C)C(=O)[C@H](CC(C)C)NC(=O)[C@H](CC(C)C)N(C)C1=O [Gala12, Cyclo(Me-L-Leu-L-Leu-O-Me-D-Ser-Me-L-Leu-L-Leu)] (cyclo(L[NMeL]L[dS](Me)[NMeL])) |  |  | pIC50 [1]: 4.85 |
| < 4.70 | < 4.10 | COc1ccc(C[C@H]2NC(=O)[C@H](CC(C)C)NC(=O)[C@H](CC(C)C)N(C)C(=O)[C@H](CC(C)C)NC(=O)[C@H](CC(C)C)N(C)C2=O)cc1 [Gala13, Cyclo(Me-L-Leu-L-Leu-O-Tyr-Me-L-Leu-L-Leu)] (cyclo(L[NMeL]L[dY](Me)[NMeL])) |  |  |  |
| 4.70 | 4.53 | COC(=O)C[C@H]1NC(=O)[C@H](CC(C)C)NC(=O)[C@H](CC(C)C)N(C)C(=O)[C@H](CC(C)C)NC(=O)[C@H](CC(C)C)N(C)C1=O [Gala14, Cyclo(Me-L-Leu-L-Leu-Methylester-D-Asp-Me-L-Leu-L-Leu)] (cyclo(L[NMeL]L[dD](OMe)[NMeL])) |  |  | pIC50 [1]: 4.65 |
| < 4.70 | 4.89 | CC(C)C[C@@H]1NC(=O)[C@H](CC(C)C)N(C)C(=O)[C@H](CC(C)C)NC(=O)[C@H](CC(C)C)N(C)C(=O)[C@@H](Cc2cccc(F)c2)NC1=O [Gala15, Cyclo(Me-L-Leu-L-Leu-3-Flu-D-Phe-Me-L-Leu-L-Leu)] |  |  |  |
| < 4.70 | < 4.10 | Cc1ccccc1C[C@H]1NC(=O)[C@H](CC(C)C)NC(=O)[C@H](CC(C)C)N(C)C(=O)[C@H](CC(C)C)NC(=O)[C@H](CC(C)C)N(C)C1=O [Gala16, Cyclo(Me-L-Leu-L-Leu-2-Me-D-Phe-Me-L-Leu-L-Leu)] |  |  |  |
| < 4.70 | 4.11 | CC(C)C[C@@H]1NC(=O)[C@H](CC(C)C)N(C)C(=O)[C@H](CC(C)C)NC(=O)[C@H](CC(C)C)N(C)C(=O)[C@@H](Cc2ccc(Cl)cc2)NC1=O [Gala17, Cyclo(Me-L-Leu-L-Leu-4-Chl-D-Phe-Me-L-Leu-L-Leu)] |  |  |  |
|  | 4.62 | CC(C)C[C@@H]1NC(=O)[C@H](CC(C)C)N(C)C(=O)[C@H](CC(C)C)NC(=O)[C@H](CC(C)C)N(C)C(=O)[C@@H](Cc2ccc(Br)cc2)NC1=O [Gala18, Cyclo(Me-L-Leu-L-Leu-4-Bro-D-Phe-Me-L-Leu-L-Leu)] |  |  | pIC50 [1]: 4.85 |
| < 4.70 | 4.12 | CC(C)C[C@@H]1NC(=O)[C@H](CC(C)C)N(C)C(=O)[C@H](CC(C)C)NC(=O)[C@H](CC(C)C)N(C)C(=O)[C@@H](C2CCCCC2)NC1=O [Gala19, Cyclo(Me-L-Leu-L-Leu-D-cyclohexyl-Gly-Me-L-Leu-L-Leu)] (cyclo(L[NMeL]L[dChg][NMeL])) |  |  |  |
| < 4.70 | < 4.10 | CC(C)C[C@@H]1NC(=O)[C@H](CC(C)C)N(C)C(=O)[C@H](CC(C)C)NC(=O)[C@H](CC(C)C)N(C)C(=O)[C@@H](c2ccccc2)NC1=O [Gala20, Cyclo(Me-L-Leu-L-Leu-D-phenyl-Gly-Me-L-Leu-L-Leu)] (cyclo(L[NMeL]L[dPhg][NMeL])) |  |  |  |
| < 4.70 | 4.31 | CC(C)C[C@@H]1NC(=O)[C@H](CC(C)C)N(C)C(=O)[C@H](CC(C)C)NC(=O)[C@H](CC(C)C)N(C)C(=O)[C@@H](C(C)C)NC1=O [Gala21, Cyclo(Me-L-Leu-L-Leu-D-Val-Me-L-Leu-L-Leu)] (cyclo([NMeL]L[dV][NMeL]L)) |  |  |  |
|  | 5.07 | CSCC[C@H]1NC(=O)[C@H](CC(C)C)NC(=O)[C@H](CC(C)C)N(C)C(=O)[C@H](CC(C)C)NC(=O)[C@H](CC(C)C)N(C)C1=O [Gala22, Cyclo(Me-L-Leu-L-Leu-D-Met-Me-L-Leu-L-Leu)] (cyclo(L[NMeL]L[dM][NMeL])) |  |  | pIC50 [1]: 4.89 |
| < 4.70 | 5.16 | Cc1cccc(C[C@H]2NC(=O)[C@H](CC(C)C)NC(=O)[C@H](CC(C)C)N(C)C(=O)[C@H](CC(C)C)NC(=O)[C@H](CC(C)C)N(C)C2=O)c1 [Gala23, Cyclo(Me-L-Leu-L-Leu-3-Me-D-Phe-Me-L-Leu-L-Leu)] |  |  |  |
|  |  | (−)-β-elemene [reference compound] | < 4.00 | < 4.00 | pIC50 [1, 6]: < 4.00 |
